The values below come from PubChem BioAssay AID1259408 (Genetic Toxicology Data Bank (GENE-TOX), 2018).

The test system of this series is GENE-TOX genotoxicity assays, various organisms and cells. Kind of series: GENE-TOX mutagenicity studies. Conditions: for call: Assay Type: In vivo carcinogenicity studies, Assay Code: CCG+.
The mark [1] stands for this setting: Species/Cell Type: Nonhuman, Assay Type: Sister-chromatid exchange (SCE) in vitro, Assay Code: SC2+D, Dose Response: With dose response, Evaluation Type: Evaluation B (Post-1980).
The mark [2] stands for this setting: Species/Cell Type: Rodents, Sex: Male, Assay Type: Dominant lethal test, Assay Code: DLT-, Evaluation Type: Evaluation A (Pre-1980).
Where [3] appears, read: Species/Cell Type: Saccharomyces cerevisiae, Assay Type: Mitotic recombination or gene conversion, Assay Code: YEC+, Evaluation Type: Evaluation A (Pre-1980).
Setting [4] is: Species/Cell Type: Nonhuman, Evaluation Type: Evaluation A (Pre-1980).

Calls of active or inactive are those of the source. No rule for the calls is given here.

Turning to `CS(=O)(=O)OCC(O)C(O)COS(C)(=O)=O` (stereo not drawn), the mutagenic call is “no conclusion” (Species/Cell Type: Allium cepa, Assay Type: Chromosome aberrations, Assay Code: ALCT, Evaluation Type: Evaluation A (Pre-1980)); “active; positive” (Species/Cell Type: Arabidopsis species, Assay Type: Gene mutation, Assay Code: ARM+, Evaluation Type: Evaluation A (Pre-1980)); “active; positive” (Species/Cell Type: Vicia faba, Assay Type: Chromosome aberrations, Assay Code: VIC+D, Dose Response: With dose response, Evaluation Type: Evaluation A (Pre-1980)).
Regarding `CCCCC/C=C/C=C/C(=O)NCC(C)C`, the mutagenic call (Species/Cell Type: Allium cepa, Assay Type: Chromosome aberrations, Assay Code: ALC+, Evaluation Type: Evaluation A (Pre-1980)) was “active; positive”.
Turning to `O=S(O)O`, the mutagenic call is “inactive; negative” (Species/Cell Type: Escherichia coli WP2 UVRA, Assay Type: Tryptophan reverse gene mutation, Assay Code: WPU-*, Activation: With metabolic activation, Evaluation Type: Evaluation A (Pre-1980)); “inactive; negative” (Species/Cell Type: Mouse, Sex: Male, Assay Type: Heritable translocation test, chromosome aberrations, Assay Code: HTT-, Evaluation Type: Evaluation A (Pre-1980)); “inactive; negative” (Species/Cell Type: Mouse, Sex: Male, Assay Type: Specific locus test, gene mutation, Assay Code: SLT-, Evaluation Type: Evaluation A (Pre-1980)); “active; positive” under setting [1]; “inactive; negative” under setting [2]; “active; positive” (Species/Cell Type: Saccharomyces cerevisiae, Assay Type: Reverse gene mutation, Assay Code: YER+, Evaluation Type: Evaluation A (Pre-1980)).
Regarding `COP(=O)(Oc1cc(Cl)c(Br)cc1Cl)c1ccccc1` (stereo not drawn), the mutagenic call under setting [1] was “active; positive”.
For `O=NN(CCCl)C(=O)NCCCCNC(=O)N(CCCl)N=O`, the mutagenic call runs as follows: (Species/Cell Type: Drosophila melanogaster, Assay Type: Sex-linked recessive lethal gene mutation, Assay Code: SRL+, Evaluation Type: Evaluation A (Pre-1980)) “active; positive”; under setting [3], “active; positive”.
Turning to `CC(C)(C)OO`, the mutagenic call reads like this: (Species/Cell Type: Neurospora crassa, Assay Type: Reverse gene mutation, Assay Code: NER+, Evaluation Type: Evaluation A (Pre-1980)) “active; positive”; under setting [3], “active; positive”; (Species/Cell Type: Vicia faba, Assay Type: Chromosome aberrations, Assay Code: VIC+, Evaluation Type: Evaluation A (Pre-1980)) “active; positive”.
As for `NC[C@H]1O[C@H](O[C@H]2[C@H](O)[C@@H](O[C@H]3O[C@H](CO)[C@@H](O)[C@H](N)[C@H]3O)[C@H](N)C[C@@H]2N)[C@H](N)[C@@H](O)[C@@H]1O`, where the note is “Species/Cell Type: Saccharomyces cerevisiae, Assay Type: Mitotic recombination or gene conversion, Assay Code: YEH-, Evaluation Type: Evaluation A (Pre-1980)”, the mutagenic call was “inactive; negative”.
For `Clc1ccc(C(c2ccc(Cl)cc2)C(Cl)(Cl)Cl)cc1`, the mutagenic call was “active; positive” (Species/Cell Type: Chinese hamster lung (V79) cells, Assay Type: Forward gene mutation at the HPRT or ouabain locus, Assay Code: V79+, Evaluation Type: Evaluation A (Pre-1980)); “active; positive” (Species/Cell Type: Drosophila melanogaster, Assay Type: Aneuploidy, partial sex chromosome loss, chromosome aberrations, Assay Code: DAP+M, Evaluation Type: Evaluation A (Pre-1980)); “no conclusion” (Species/Cell Type: Drosophila melanogaster, Assay Type: Aneuploidy, sex chromosome gain, chromosome aberrations, Assay Code: DAGT, Evaluation Type: Evaluation A (Pre-1980)); “no conclusion” (Species/Cell Type: Drosophila melanogaster, Assay Type: Aneuploidy, whole sex chromosome loss, chromosome aberrations, Assay Code: DACT, Evaluation Type: Evaluation A (Pre-1980)); “inactive; negative” (Species/Cell Type: Drosophila melanogaster, Assay Type: Sex-linked recessive lethal gene mutation, Assay Code: SRL-, Evaluation Type: Evaluation A (Pre-1980)); “no conclusion” (Species/Cell Type: Escherichia coli polA (W3119 vs P3478), Assay Type: Rec-assay, DNA effects (bacterial DNA repair), Assay Code: RE1T, Evaluation Type: Evaluation A (Pre-1980)). The mutagenic call runs as follows: (Species/Cell Type: Mammalian polychromatic erythrocytes, Assay Type: Micronucleus test, chromosome aberrations, Assay Code: MNTT, Evaluation Type: Evaluation A (Pre-1980)) “no conclusion”; (Species/Cell Type: Mouse, Sex: Male, Assay Type: Sperm morphology, Assay Code: SPI-, Evaluation Type: Evaluation A (Pre-1980)) “inactive; negative”; (Species/Cell Type: Nonhuman, Assay Type: Chromosome aberrations in vitro, Assay Code: CY&+, Evaluation Type: Evaluation A (Pre-1980)) “active; positive”; (Species/Cell Type: Rodents, Sex: Male, Assay Type: Dominant lethal test, Assay Code: DLTT, Evaluation Type: Evaluation A (Pre-1980)) “no conclusion”; (Species/Cell Type: Saccharomyces cerevisiae, Assay Type: Mitotic recombination or gene conversion, Assay Code: YEH-*, Activation: With metabolic activation, Evaluation Type: Evaluation A (Pre-1980)) “inactive; negative”; (Species/Cell Type: Salmonella typhimurium (one or more of the five standard strains: TA98, TA100, TA1535, TA1537, and TA1538), Assay Type: Histidine reverse gene mutation, Ames assay, Assay Code: SAL-, Evaluation Type: Evaluation A (Pre-1980)) “inactive; negative”. The mutagenic call (Species/Cell Type: Salmonella typhimurium, Serratia marcesens, Assay Type: Forward and reverse gene mutation, host-mediated assay, Assay Code: HM2-, Evaluation Type: Evaluation A (Pre-1980)) was “inactive; negative”. Further, under setting [4], the call is “active; positive”.
As for `O=Cc1ccc([N+](=O)[O-])o1`, the mutagenic call runs as follows: (Species/Cell Type: Escherichia coli WP2, Assay Type: Tryptophan reverse gene mutation, Assay Code: WP2-, Evaluation Type: Evaluation A (Pre-1980)) “inactive; negative”; (Species/Cell Type: Saccharomyces cerevisiae, Assay Type: Mitotic recombination or gene conversion, Assay Code: YEC-, Evaluation Type: Evaluation A (Pre-1980)) “inactive; negative”.
For the molecule `O[C@H]1[C@@H](O)Cc2c(cc3ccc4cccc5ccc2c3c45)[C@@H]1O`, the mutagenic call (Species/Cell Type: Chinese hamster lung (V79) cells, Assay Type: Forward gene mutation at the HPRT or ouabain locus, Assay Code: V79-, Evaluation Type: Evaluation A (Pre-1980)) is “inactive; negative”.
For `O=[N+]([O-])c1ccc(N=Nc2c(O)ccc3ccccc23)c(Cl)c1`, the mutagenic call (Species/Cell Type: Salmonella typhimurium (one or more of the five standard strains: TA98, TA100, TA1535, TA1537, and TA1538), Assay Type: Histidine reverse gene mutation, Ames assay, Assay Code: SAL+*, Activation: With metabolic activation, Evaluation Type: Evaluation A (Pre-1980)) is “active; positive”.
For the molecule `Nc1ccc(S(=O)(=O)Nc2nccs2)cc1`, the mutagenic call (Species/Cell Type: Arabidopsis species, Assay Type: Gene mutation, Assay Code: ARM-, Evaluation Type: Evaluation A (Pre-1980)) was “inactive; negative”.
Take `Nc1ncnc2c1ccn2[C@@H]1O[C@H](CO)[C@@H](O)[C@H]1O`: the mutagenic call (Species/Cell Type: Fischer rat embryo (RLV/1706) cells, Assay Type: Cell transformation, viral enhanced, Assay Code: CTR-, Evaluation Type: Evaluation A (Pre-1980)) was “inactive; negative”.
Consider `CCN(CCCl)CCCNc1c2ccccc2nc2c1ccc1cccnc12`, for which the mutagenic call (Species/Cell Type: Chinese hamster ovary (CHO) cells, Assay Type: Forward gene mutation at the HPRT locus, Assay Code: CHO+, Evaluation Type: Evaluation B (Post-1980)) is “active; positive”.
As to `OCC1COCO1` (stereo not drawn), the mutagenic call (Species/Cell Type: Mammalian polychromatic erythrocytes, Assay Type: Micronucleus test, chromosome aberrations, Assay Code: MNT-, Evaluation Type: Evaluation B (Post-1980)) is “inactive; negative”.
Take `[N-]=[N+]=CC(=O)OC[C@H](N)C(=O)O`: the mutagenic call runs as follows: (Species/Cell Type: Escherichia coli WP2, Assay Type: Tryptophan reverse gene mutation, Assay Code: WP2+, Evaluation Type: Evaluation A (Pre-1980)) “active; positive”; (Species/Cell Type: Escherichia coli polA (W3119 vs P3478), Assay Type: Rec-assay, DNA effects (bacterial DNA repair), Assay Code: RE1+, Evaluation Type: Evaluation A (Pre-1980)) “active; positive”; under setting [1], “active; positive”; (Species/Cell Type: Salmonella typhimurium (one or more of the five standard strains: TA98, TA100, TA1535, TA1537, and TA1538), Assay Type: Histidine reverse gene mutation, Ames assay, Assay Code: SAL+, Evaluation Type: Evaluation A (Pre-1980)) “active; positive”; (Species/Cell Type: Syrian hamster embryo (SHE) cells, Assay Type: Cell transformation, clonal assay, Assay Code: CTC+, Evaluation Type: Evaluation A (Pre-1980)) “active; positive”. Also, the call under setting [4] was “active; positive”.
Turning to `CN(C)c1ccc(N=Nc2cccc(CCl)c2)cc1`, where the note is “Species/Cell Type: Drosophila melanogaster, Assay Type: Sex-linked recessive lethal gene mutation, Assay Code: SRLT, Evaluation Type: Evaluation A (Pre-1980)”, the mutagenic call is reported as “no conclusion”.
For the molecule `OCC(O)CCl` (stereo not drawn), the mutagenic call (Species/Cell Type: Rat, Sex: Male, Assay Type: Sperm morphology, Assay Code: SPAT, Evaluation Type: Evaluation A (Pre-1980)) is given as “no conclusion” and the mutagenic call under setting [2] is “inactive; negative”.
